Laboratory results published in patent US8106055B2, “Substituted amide compounds” (Gruenenthal GmbH, priority 2007, dated 2012).

Each molecule was assayed against T1, human μ opiate receptor (Homo sapiens, UniProt P35372) (assay: Affinity for the human μ opiate receptor ([3H]-naloxone displacement, CHO-K1 receptor membrane preparation, SPA)). Conditions: test concentration of 1 μM; read-out: μ (binding on the μ opioid receptor, % inhibition).
T1 construct: purchased PerkinElmer Life Sciences, Zaventem, Belgium RB-HOM; host or cells: CHO-K1 cells (membrane preparation)
T1 sequence (P35372 whole entry): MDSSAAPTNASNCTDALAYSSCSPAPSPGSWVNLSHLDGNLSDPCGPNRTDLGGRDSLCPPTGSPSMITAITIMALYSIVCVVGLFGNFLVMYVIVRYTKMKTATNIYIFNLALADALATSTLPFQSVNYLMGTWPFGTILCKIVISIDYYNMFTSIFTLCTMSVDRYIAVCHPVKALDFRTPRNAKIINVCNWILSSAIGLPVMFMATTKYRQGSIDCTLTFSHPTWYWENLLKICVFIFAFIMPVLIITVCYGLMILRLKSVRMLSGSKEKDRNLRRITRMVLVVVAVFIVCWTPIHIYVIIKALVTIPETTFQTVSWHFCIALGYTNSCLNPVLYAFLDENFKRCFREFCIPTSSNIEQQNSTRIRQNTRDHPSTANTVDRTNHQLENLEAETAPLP
Assay type: binding
How it was run: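 Readout is percent displacement of [3H]-naloxone (1 nmol/l) from human μ receptor in CHO-K1 membranes, measured at 1 μmol/l compound. Incubation runs 90 minutes at room temperature with WGA-SPA beads in Tris-HCl/BSA buffer; non-specific binding is defined with 100 μmol/l naloxone.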
`CN(C)C(c1cccs1)C1CCC(NC(=O)COC2CCN(S(=O)(=O)c3cccc(C(F)(F)F)c3)C2)CC1` (centres unmarked) [Example 11, N-(4-((dimethylamino)(thiophen-2-yl)methyl)cyclohexyl)-2-(1-(3-(trifluoromethyl)phenylsulfonyl)pyrrolidin-3-yloxy)acetamide] showed an inhibition at 1 µM of 98%.
`CCN(CCOCC(=O)NC1CCC(C(c2cccc(F)c2)N(C)C)CC1)S(=O)(=O)c1c(C)cc(OC)c(C)c1C` (centres unmarked) [Example 176, N-(4-((dimethylamino)(3-fluorophenyl)methyl)cyclohexyl)-2-(2-(N-ethyl-4-methoxy-2,3,6-trimethylphenylsulfonamido)ethoxy)acetamide] showed an inhibition at 1 µM of 87%.
For `COc1ccc(S(=O)(=O)N2CCCCC2COCC(=O)NCC2CCC(C(c3ccccc3)N(C)C)CC2)cc1OC` (centres unmarked) [Example 150, 2-((1-(3,4-Dimethoxyphenylsulfonyl)piperidin-2-yl)methoxy)-N-((4-((dimethylamino)(phenyl)methyl)cyclohexyl)methyl)acetamide], the inhibition at 1 µM was 86%.
`CN(C)C(c1ccccc1)C1CCC(CNC(=O)COC2CCN(S(=O)(=O)c3ccccc3)C2)CC1` (centres unmarked) [Example 195, N-((4-((dimethylamino)(phenyl)methyl)cyclohexyl)methyl)-2-(1-(phenylsulfonyl)pyrrolidin-3-yloxy)acetamide] showed an inhibition at 1 µM of 83%.
Work on `Cc1ccc(S(=O)(=O)N2CCC(OCC(=O)NC3CCC(C(c4cccc(F)c4)N(C)C)CC3)C2)cc1` (centres unmarked) [Example 167, N-(4-((dimethylamino)(3-fluorophenyl)methyl)cyclohexyl)-2-(1-tosylpyrrolidin-3-yloxy)acetamide] yielded an inhibition at 1 µM of 82%.
`COc1ccc(S(=O)(=O)N2CCC(OCC(=O)NC3CCC(C(c4cccs4)N(C)C)CC3)C2)cc1OC` (centres unmarked) [Example 155, 2-(1-(3,4-dimethoxyphenylsulfonyl)pyrrolidin-3-yloxy)-N-(4-((dimethylamino)(thiophen-2-yl)methyl)cyclohexyl)acetamide] showed an inhibition at 1 µM of 88%.
`CN(C)C(c1ccccc1)C1CCC(CNC(=O)COCCN(Cc2ccccc2)S(=O)(=O)c2ccccc2)CC1` (centres unmarked) [Example 15, 2-(2-(N-benzylphenylsulfonamido)ethoxy)-N-((4-((dimethylamino)(phenyl)methyl)cyclohexyl)methyl)acetamide] showed an inhibition at 1 µM of 98%.
`COc1ccc(S(=O)(=O)N2CCC(OCC(=O)NCC3CCC(C(c4cccs4)N(C)C)CC3)C2)cc1OC` (centres unmarked) [Example 23, 2-(1-(3,4-dimethoxyphenylsulfonyl)pyrrolidin-3-yloxy)-N-((4-((dimethylamino)(thiophen-2-yl)methyl)cyclohexyl)methyl)acetamide] showed an inhibition at 1 µM of 97%.
`COc1cc(C)c(S(=O)(=O)N(C)CCOCC(=O)NCCC2CCC(C(c3cccc(F)c3)N(C)C)CC2)c(C)c1C` (centres unmarked) [Example 183, N-(2-(4-((dimethylamino)(3-fluorophenyl)methyl)cyclohexyl)ethyl)-2-(2-(4-methoxy-N,2,3,6-tetramethylphenylsulfonamido)ethoxy)acetamide] showed an inhibition at 1 µM of 83%.
With `COc1cc(C)c(S(=O)(=O)N2CCN(CCOCC(=O)NCCC3CCC(C(c4cccc(F)c4)N(C)C)CC3)CC2)c(C)c1C` (centres unmarked) [Example 200, N-(2-(4-((dimethylamino)(3-fluorophenyl)methyl)cyclohexyl)ethyl)-2-(2-(4-(4-methoxy-2,3,6-trimethylphenylsulfonyl)piperazin-1-yl)ethoxy)acetamide] the inhibition at 1 µM was 80%.
Molecule `COc1ccc(S(=O)(=O)N2CCCCC2COCC(=O)NCCC2CCC(C(c3cccs3)N(C)C)CC2)cc1` (centres unmarked) [Example 30, N-(2-(4-((dimethylamino)(thiophen-2-yl)methyl)cyclohexyl)ethyl)-2-((1-(4-methoxyphenylsulfonyl)piperidin-2-yl)methoxy)acetamide] has an inhibition at 1 µM of 97%.
`COc1cc(C)c(S(=O)(=O)N2CCC(OCC(=O)NCCC3CCC(C(c4cccs4)N(C)C)CC3)C2)c(C)c1` (centres unmarked) [Example 199, N-(2-(4-((dimethylamino)(thiophen-2-yl)methyl)cyclohexyl)ethyl)-2-(1-(4-methoxy-2,6-dimethylphenylsulfonyl)pyrrolidin-3-yloxy)acetamide] gave an inhibition at 1 µM of 87%.
For `CN(C)C(c1cccc(F)c1)C1CCC(CCNC(=O)COCCN(C)S(=O)(=O)c2c(Cl)cc(Cl)cc2Cl)CC1` (centres unmarked) [Example 174, N-(2-(4-((dimethylamino)(3-fluorophenyl)methyl)cyclohexyl)ethyl)-2-(2-(2,4,6-trichloro-N-methylphenylsulfonamido)ethoxy)acetamide], the inhibition at 1 µM was 90%.
`CN(C)C(c1ccccc1)C1CCC(CNC(=O)COCC2CCCN2S(=O)(=O)c2ccc(Cl)c(Cl)c2)CC1` (centres unmarked) [Example 18, 2-((1-(3,4-dichlorophenylsulfonyl)pyrrolidin-2-yl)methoxy)-N-((4-((dimethylamino)(phenyl)methyl)cyclohexyl)methyl)acetamide] gave an inhibition at 1 µM of 98%.
With `CN(C)C(c1cccc(F)c1)C1CCC(NC(=O)COCCN(C)S(=O)(=O)c2c(Cl)cccc2Cl)CC1` (centres unmarked) [Example 171, 2-(2-(2,6-dichloro-N-methylphenylsulfonamido)ethoxy)-N-(4-((dimethylamino)(3-fluorophenyl)methyl)cyclohexyl)acetamide] the inhibition at 1 µM was 84%.
Molecule `COc1cc(C)c(S(=O)(=O)N2CCC(OCC(=O)NC3CCC(C(c4ccccc4)N(C)C)CC3)C2)c(C)c1` (centres unmarked) [Example 165, N-(4-((dimethylamino)(phenyl)methyl)cyclohexyl)-2-(1-(4-methoxy-2,6-dimethylphenylsulfonyl)pyrrolidin-3-yloxy)acetamide] has an inhibition at 1 µM of 87%.
`CN(C)C(c1cccc(F)c1)C1CCC(CCNC(=O)COCC2CCCCN2S(=O)(=O)c2ccc(Cl)c(Cl)c2)CC1` (centres unmarked) [Example 147, 2-((1-(3,4-dichlorophenylsulfonyl)piperidin-2-yl)methoxy)-N-(2-(4-((dimethylamino)(3-fluorophenyl)methyl)cyclohexyl)ethyl)acetamide] showed an inhibition at 1 µM of 90%.
Molecule `COc1cc(C)c(S(=O)(=O)N2CCCC(OCC(=O)NCC3CCC(C(c4cccc(F)c4)N(C)C)CC3)C2)c(C)c1C` (centres unmarked) [Example 145, N-((4-((dimethylamino)(3-fluorophenyl)methyl)cyclohexyl)methyl)-2-(1-(4-methoxy-2,3,6-trimethylphenylsulfonyl)piperidin-3-yloxy)acetamide] has an inhibition at 1 µM of 87%.
`CN(C)C(c1cccs1)C1CCC(CCNC(=O)COCCN(C)S(=O)(=O)c2cccc(C(F)(F)F)c2)CC1` (centres unmarked) [Example 32, N-(2-(4-((dimethylamino)(thiophen-2-yl)methyl)cyclohexyl)ethyl)-2-(2-(N-methyl-3-(trifluoromethyl)phenylsulfonamido)ethoxy)acetamide] was tested, and the inhibition at 1 µM was 97%.
For `CN(C)C(c1ccccc1)C1CCC(NC(=O)COCCN(C)S(=O)(=O)c2ccc(Cl)cc2Cl)CC1` (centres unmarked) [Example 33, 2-(2-(2,4-dichloro-N-methylphenylsulfonamido)ethoxy)-N-(4-((dimethylamino)(phenyl)methyl)cyclohexyl)acetamide], the inhibition at 1 µM was 49%.
`CN(C)C(c1cccs1)C1CCC(CNC(=O)COC2CCN(S(=O)(=O)c3cccc(C(F)(F)F)c3)C2)CC1` (centres unmarked) [Example 25, N-((4-((dimethylamino)(thiophen-2-yl)methyl)cyclohexyl)methyl)-2-(1-(3-(trifluoromethyl)phenylsulfonyl)pyrrolidin-3-yloxy)acetamide] gave an inhibition at 1 µM of 97%.
Molecule `COc1cc(C)c(S(=O)(=O)N2CCCC(OCC(=O)NC3CCC(C(c4cccs4)N(C)C)CC3)C2)c(C)c1C` (centres unmarked) [Example 144, N-(4-((dimethylamino)(thiophen-2-yl)methyl)cyclohexyl)-2-(1-(4-methoxy-2,3,6-trimethylphenylsulfonyl)piperidin-3-yloxy)acetamide] has an inhibition at 1 µM of 89%.
In the case of `COc1cc(C)c(S(=O)(=O)N2CCC(OCC(=O)NCC3CCC(C(c4ccccc4)N(C)C)CC3)C2)c(C)c1` (centres unmarked) [Example 173, N-((4-((dimethylamino)(phenyl)methyl)cyclohexyl)methyl)-2-(1-(4-methoxy-2,6-dimethylphenylsulfonyl)pyrrolidin-3-yloxy)acetamide], the inhibition at 1 µM is reported as 87%.
